Assay type in all cases: in vivo
Assay [1] deals with Yellow Fever Mosquito (Aedes aegypti). Description: Bioassay on Yellow Fever Mosquito (YFM) larvae, 96-well plate. Conditions: Table ABC. In short, it runs like this:
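About 1-day-old larvae in water with liver powder were added to wells holding compound from a 4000 ppm DMSO master diluted in 90:10 water:acetone. Plates covered and kept at room temperature for 3 days, then each well scored for mortality on a rating scale.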

Assay [2] has as its system Beet Armyworm (Spodoptera exigua). Description: Bioassay on Beet Armyworm (BAW), 128-well diet tray assay. Conditions: Beet Armyworm, Table ABC, read-out: BAW rating. In short, it runs like this:
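Second-instar larvae (one to five per well) placed on artificial diet surface-treated with 50 μg/cm^2 test molecule in 90:10 acetone-water, dried, eight wells per molecule. Held at 25° C, 14:10 light-dark, five to seven days; percent mortality recorded per well and averaged across the eight wells.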

In assay [3] the test system is Cabbage Looper (Trichoplusia ni). Description: Bioassay on Cabbage Looper (CL), 128-well diet tray assay. To be noted: Cabbage Looper, Table ABC, read-out: CL rating. Put shortly:
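Second-instar larvae, one to five per well, placed on artificial diet surface-treated with 50 μg/cm^2 compound in acetone-water, eight wells per compound. Held 5-7 days at 25° C, 14:10 light-dark; percent mortality per well averaged across wells.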

On to `O=C(CNC(=O)c1ccc(/C(F)=C/C(c2cc(F)c(F)c(Cl)c2)C(F)(F)F)cc1C(F)(F)F)NCC(F)(F)F` (stereo not drawn) [F153, (Z)-4-(3-(3-Chloro-4,5-difluorophenyl)-1,4,4,4-tetrafluorobut-1-en-1-yl)-N-(2-oxo-2-((2,2,2-trifluoroethyl)amino)ethyl)-2-(trifluoromethyl)benzamide], for which the YFM rating entry in assay [1] was “A (80-100)”. For the same compound, the pest or weed control at 50 µg/cm2 in assay [2] and in assay [3] was 50 to 100% each time.

Turning to `O=C(CNC(=O)c1ccc(/C(F)=C/C(c2cc(F)cc(Cl)c2)C(F)(F)F)cc1C(F)(F)F)NCC(F)(F)F` (stereo not drawn) [F157, (Z)-4-(3-(3-Chloro-5-fluorophenyl)-1,4,4,4-tetrafluorobut-1-en-1-yl)-N-(2-oxo-2-((2,2,2-trifluoroethyl)amino)ethyl)-2-(trifluoromethyl)benzamide], the YFM rating entry in assay [1] is “A (80-100)”. In addition, the pest or weed control at 50 µg/cm2 in assay [2] and in assay [3] was 50 to 100% throughout.

Take `C[C@@H](NC(=O)c1ccc(/C(F)=C/C(c2cc(F)c(F)c(F)c2)C(F)(F)F)cc1C(F)(F)F)C(=O)NCC(F)(F)F` (stereo partly drawn) [F159, N—((R)-1-Oxo-1-((2,2,2-trifluoroethyl)amino)propan-2-yl)-4-((Z)-1,4,4,4-tetrafluoro-3-(3,4,5-trifluorophenyl)but-1-en-1-yl)-2-(trifluoromethyl)benzamide]: the YFM rating result in assay [1] is “A (80-100)”. The pest or weed control at 50 µg/cm2 in assay [2] and in assay [3] was 50 to 100% in each case.

For the compound `COc1ccc(C(/C=C(\F)c2ccc(C(=O)N[C@H](C)C(=O)NCC(F)(F)F)c(C(F)(F)F)c2)C(F)(F)F)cc1Cl` (stereo partly drawn) [F161, 4-((Z)-3-(3-Chloro-4-methoxyphenyl)-1,4,4,4-tetrafluorobut-1-en-1-yl)-N—((R)-1-oxo-1-((2,2,2-trifluoroethyl)amino)propan-2-yl)-2-(trifluoromethyl)benzamide], the YFM rating result in assay [1] is on record as “A (80-100)”. Further, the pest or weed control at 50 µg/cm2 in assay [2] and in assay [3] was 50 to 100% in each case.

Regarding `CC(=O)CNC(=O)CNC(=O)c1ccc(/C(F)=C/C(c2cc(Cl)c(Cl)c(Cl)c2)C(F)(F)F)cc1C(F)(F)F` (stereo not drawn) [F163, (Z)—N-(2-Oxo-2-((2-oxopropyl)amino)ethyl)-4-(1,4,4,4-tetrafluoro-3-(3,4,5-trichlorophenyl)but-1-en-1-yl)-2-(trifluoromethyl)benzamide], the YFM rating entry in assay [1] is given as “A (80-100)”. In addition, the pest or weed control at 50 µg/cm2 in assay [2] and in assay [3] was 50 to 100% in each case.

Regarding `CCc1ccc(C(/C=C(\F)c2ccc(C(=O)N[C@H](C)C(=O)NCC(F)(F)F)c(C(F)(F)F)c2)C(F)(F)F)cc1Cl` (stereo partly drawn) [F164, 4-((Z)-3-(3-Chloro-4-ethylphenyl)-1,4,4,4-tetrafluorobut-1-en-1-yl)-N—((R)-1-oxo-1-((2,2,2-trifluoroethyl)amino)propan-2-yl)-2-(trifluoromethyl)benzamide], in assay [1], the YFM rating entry is reported as “B (More than 0-Less than 80)”. Further, the pest or weed control at 50 µg/cm2 in assay [2] and in assay [3] was 50 to 100% throughout.

With `CCc1ccc(C(/C=C(\F)c2ccc(C(=O)NCC(=O)NCC(F)(F)F)c(C(F)(F)F)c2)C(F)(F)F)cc1Cl` (stereo not drawn) [F165, (Z)-4-(3-(3-Chloro-4-ethylphenyl)-1,4,4,4-tetrafluorobut-1-en-1-yl)-N-(2-oxo-2-((2,2,2-trifluoroethyl)amino)ethyl)-2-(trifluoromethyl)benzamide], in assay [1], the YFM rating entry is given as “B (More than 0-Less than 80)”. In addition, the pest or weed control at 50 µg/cm2 in assay [2] and in assay [3] was 50 to 100% each time.

On to `C[C@@H](NC(=O)c1ccc(/C(F)=C/C(c2cc(Cl)c(Cl)c(Cl)c2)C(F)(F)F)cc1C(F)(F)F)C(=O)N(C)C` (stereo partly drawn) [F172, N—((R)-1-(Dimethylamino)-1-oxopropan-2-yl)-4-((Z)-1,4,4,4-tetrafluoro-3-(3,4,5-trichlorophenyl)but-1-en-1-yl)-2-(trifluoromethyl)benzamide], for which the YFM rating entry in assay [1] is “B (More than 0-Less than 80)”. Also, the pest or weed control at 50 µg/cm2 in assay [2] and in assay [3] was 50 to 100% throughout.

In the case of `C[C@@H](NC(=O)c1ccc(/C(F)=C/C(c2ccc(C(F)(F)F)c(Cl)c2)C(F)(F)F)cc1C(F)(F)F)C(=O)NCC(F)(F)F` (stereo partly drawn) [F205, 4-((Z)-3-(3-Chloro-4-(trifluoromethyl)phenyl)-1,4,4,4-tetrafluorobut-1-en-1-yl)-N—((R)-1-oxo-1-((2,2,2-trifluoroethyl)amino)propan-2-yl)-2-(trifluoromethyl)benzamide], the YFM rating entry in assay [1] was “B (More than 0-Less than 80)”. In addition, the pest or weed control at 50 µg/cm2 in assay [2] and in assay [3] was 50 to 100% in each case.

On to `C[C@@H](NC(=O)c1ccc(/C(F)=C/C(c2ccc(C(F)(F)F)c(Br)c2)C(F)(F)F)cc1C(F)(F)F)C(=O)NCC(F)(F)F` (stereo partly drawn) [F208, 4-((Z)-3-(3-Bromo-4-(trifluoromethyl)phenyl)-1,4,4,4-tetrafluorobut-1-en-1-yl)-N—((R)-1-oxo-1-((2,2,2-trifluoroethyl)amino)propan-2-yl)-2-(trifluoromethyl)benzamide], for which the YFM rating result in assay [1] is given as “A (80-100)”. In addition, the pest or weed control at 50 µg/cm2 in assay [2] and in assay [3] was 50 to 100% each time.

In the case of `O=C(CNC(=O)c1ccc(/C(F)=C/C(c2ccc(C(F)(F)F)c(Br)c2)C(F)(F)F)cc1C(F)(F)F)NCC(F)(F)F` (stereo not drawn) [F209, (Z)-4-(3-(3-Bromo-4-(trifluoromethyl)phenyl)-1,4,4,4-tetrafluorobut-1-en-1-yl)-N-(2-oxo-2-((2,2,2-trifluoroethyl)amino)ethyl)-2-(trifluoromethyl)benzamide], in assay [1], the YFM rating result was “A (80-100)”. Besides, the pest or weed control at 50 µg/cm2 in assay [2] and in assay [3] was 50 to 100% in each case.

With `C[C@@H](NC(=O)c1ccc(/C(F)=C/C(c2ccc(C(F)(F)F)c(F)c2)C(F)(F)F)cc1C(F)(F)F)C(=O)NCC(F)(F)F` (stereo partly drawn) [F210], the YFM rating result in assay [1] is listed as “B (More than 0-Less than 80)”. For the same compound, the pest or weed control at 50 µg/cm2 in assay [2] and in assay [3] was 50 to 100% throughout.

On to `C[C@@H](NC(=O)c1ccc(/C(F)=C/C(c2cc(Cl)c(Cl)c(Cl)c2)C(F)(F)F)c2ccccc12)C(=O)NCC(F)(F)F` (stereo partly drawn) [PF1, N—((R)-1-Oxo-1-((2,2,2-trifluoroethyl)amino)propan-2-yl)-4-((Z)-1,4,4,4-tetrafluoro-3-(3,4,5-trichlorophenyl)but-1-en-1-yl)-1-naphthamide], for which the YFM rating result in assay [1] is reported as “A (80-100)”. Also, the pest or weed control at 50 µg/cm2 in assay [2] and in assay [3] was 50 to 100% in each case.

`C[C@@H](NC(=O)c1ccc(/C(F)=C/C(c2ccc(Br)c(Br)c2)C(F)(F)F)cc1C(F)(F)F)C(=O)N(C)CC(F)(F)F` (stereo partly drawn) [PF2, 4-((Z)-3-(3,4-Dibromophenyl)-1,4,4,4-tetrafluoro-but-1-en-1-yl)-N—((R)-1-(methyl(2,2,2-trifluoroethyl)amino)-1-oxopropan-2-yl)-2-(trifluoromethyl)benzamide]: the YFM rating entry in assay [1] is reported as “A (80-100)”. The pest or weed control at 50 µg/cm2 in assay [2] and in assay [3] was 50 to 100% throughout.

Consider `CN(CC(F)(F)F)C(=O)CNC(=O)c1ccc(/C(F)=C/C(c2ccc(Br)c(Br)c2)C(F)(F)F)cc1C(F)(F)F` (stereo not drawn) [PF4, (Z)-4-(3-(3,4-Dibromophenyl)-1,4,4,4-tetrafluorobut-1-en-1-yl)-N-(2-(methyl(2,2,2-trifluoroethyl)amino]-2-oxoethyl)-2-(trifluoromethyl)benzamide], for which, in assay [1], the YFM rating result is listed as “A (80-100)”. For the same compound, the pest or weed control at 50 µg/cm2 in assay [2] and in assay [3] was 50 to 100% each time.

For `C[C@@H](NC(=O)c1ccc(/C(F)=C/C(c2ccc(F)c(Cl)c2)C(F)(F)F)cc1C(F)(F)F)C(=O)N(C)CC(F)(F)F` (stereo partly drawn) [PF8, 4-((Z)-3-(3-Chloro-4-fluorophenyl)-1,4,4,4-tetrafluorobut-1-en-1-yl)-N—((R)-1-(methyl(2,2,2-trifluoroethyl)amino)-1-oxopropan-2-yl)-2-(trifluoromethyl)benzamide], the YFM rating result in assay [1] was “B (More than 0-Less than 80)”. Moreover, the pest or weed control at 50 µg/cm2 in assay [2] and in assay [3] was 50 to 100% throughout.

`CN(CC(F)(F)F)C(=O)C1(NC(=O)c2ccc(/C(F)=C/C(c3ccc(F)c(Cl)c3)C(F)(F)F)cc2C(F)(F)F)CC1` (stereo not drawn) [PF10]: the YFM rating entry in assay [1] is reported as “A (80-100)”. For the same compound, the pest or weed control at 50 µg/cm2 in assay [2] and in assay [3] was 50 to 100% each time.

On to `Cc1cc(C(/C=C(\F)c2ccc(C(=O)NCC(=O)N(C)CC(F)(F)F)c(C(F)(F)F)c2)C(F)(F)F)cc(Cl)c1Cl` (stereo not drawn) [PF12, (Z)-4-(3-(3,4-Dichloro-5-methylphenyl)-1,4,4,4-tetrafluoro-but-1-en-1-yl)-N-(2-(methyl(2,2,2-trifluoroethyl)amino)-2-oxoethyl)-2-(trifluoromethyl)benzamide], for which the YFM rating result in assay [1] is reported as “B (More than 0-Less than 80)”. Moreover, the pest or weed control at 50 µg/cm2 in assay [2] and in assay [3] was 50 to 100% in each case.

Regarding `Cc1cc(C(/C=C(\F)c2ccc(C(=O)N[C@H](C)C(=O)NCC(F)(F)F)c(C(F)(F)F)c2)C(F)(F)F)cc(Cl)c1Cl` (stereo partly drawn) [PF13], the YFM rating result in assay [1] is given as “B (More than 0-Less than 80)”. In addition, the pest or weed control at 50 µg/cm2 in assay [2] and in assay [3] was 50 to 100% each time.
